Converted amounts (≈) assume the structure as drawn. “And” between values parts separate entries of the source, which are not always exact repeats. Identical values can stand only once. Where a SMILES comes first, the peptide text is derived from it. Where no end group is shown, it is not given here. The star is where a group is joined. Octanoyl = CCCCCCCC(=O)*
What was measured:
Solubility in water = type: physicochemical; settings: for solubility: water
Experimental: Solubility in water: 0.7 mg/ml

circulating GH = assay: Circulating GH in 10-day old rats after subcutaneous injection; type: in vivo; settings: 300 mg/kg, circulating GH at 15 minutes
Experimental: The peptide was injected subcutaneously in 10-day old rats at a dose of 300 mg/kg along with a solvent control and Ghrelin, and the circulating GH determined at 15 minutes, as described in R. Deghenghi et al., Life Sciences 54, 1321-1328 (1994). The results were as follows: The peptide was administered to rats as described above in Example 1. […]

Solubility in water (Solubility in water)	Molecule	solubility (Solubility in water)	GH (circulating GH)
insoluble	CCCCCCCC(=O)OC[C@H](NC(=O)[C@H](CO)NC(=O)CN)C(=O)N[C@@H](Cc1ccccc1)C(=O)O [Peptide of Example 3, Gly-Ser-Ser(Octanoyl)-Phe] (H-GSS(Octanoyl)F-OH; N-terminus and C-terminus assumed)		
	CCCCCCCC(=O)OC[C@H](NC(=O)[C@H](CO)NC(=O)CN)C(=O)N[C@@H](Cc1ccccc1)C(=O)N[C@@H](CC(C)C)C(=O)N[C@@H](CO)C(=O)N1CCC[C@H]1C(=O)N[C@@H](CCC(=O)O)C(=O)O [Peptide of Example 1, Gly-Ser-Ser(Octanoyl)-Phe-Leu-Ser-Pro-Glu]	700 µg/mL (≈ 738 µM)	
	CCCCCCCC(=O)OC[C@H](NC(=O)[C@H](CO)NC(=O)CN)C(=O)N[C@@H](Cc1ccccc1)C(=O)N[C@@H](CC(C)C)C(=O)N[C@@H](CO)C(=O)N1CCC[C@H]1C(=O)N[C@@H](CCC(=O)O)C(=O)N[C@@H](C)C(=O)N[C@@H](CCCCN)C(=O)N[C@@H](CC(C)C)C(=O)N[C@@H](CCC(N)=O)C(=O)N1CCC[C@H]1C(=O)N[C@@H](CCCNC(=N)N)C(=O)O [Peptide of Example 2, Gly-Ser-Ser(Octanoyl)-Phe-Leu-Ser-Pro-Glu-Ala-Lys-Leu-Gln-Pro-Arg] (H-GSS(Octanoyl)FLSPEAKLQPR-OH)	900 µg/mL (≈ 548 µM)	7.00 ± 3.5 ng/mL
	Ghrelin (human): peptide of 27 or 28 amino acids with an octanoyl ester on a serine residue; potent releaser of growth hormone (GSS(Octanoyl)FLSPEHQRVQQRKESKKPPAKLQPR; also: octanoyl ester on a serine residue; UniProt Q9UBU3 24-51, looked up)		139.80 ± 15.37 ng/mL and 140 ± 15 ng/mL and 139.8 ± 15.4 ng/mL

Reference: US20020187938A1, “Ghrelin antagonists” (priority 2000, published 2002)
